Assay results reported in patent publication US7595398B2, “N-(5-membered aromatic ring)-amido anti-viral compounds” (SmithKline Beecham Corporation, priority 2005, dated 2009).

These compounds were tested on HCV replicon I389luc-ubi-neo/NS3-3′/ET in ET (Huh-lucubineo-ET) cells; screening for HCV RNA dependent RNA polymerase (assay: Replicon Assay (luciferase, ET cell line Huh-lucubineo-ET)). Details: Hepatitis C virus; inhibition of replication relative to no compound control; test concentration of 10 μM according to the fitted equation; luciferase 48-72 hours.
Type: cell-based
Procedure, shortened: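 Huh-derived ET cells stably carrying an I389luc-ubi-neo/NS3-3′/ET HCV replicon with a luciferase-ubiquitin-neomycin phosphotransferase fusion and adaptive NS3-5B mutations were cultured in DMEM with 10% fetal calf serum and 250 μg/mL G418. Cells were seeded at 0.5-1.0×10^4 cells/well in 96 well plates and given compound after 24 hrs. Luciferase was read 48-72 hours later with Bright-Glo reagents, and replication inhibition was expressed relative to untreated controls.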
`Cc1ccc(-c2csc(NC(=O)[C@@H]3CCCN3C(=O)OCc3ccccc3)n2)c(C)c1` [Compound 5021, 2-[4-(2,4-Dimethyl-phenyl)-thiazol-2-ylcarbamoyl]-pyrrolidine-1-carboxylic acid benzyl ester] was tested, and the inhibition at 10 µM was 97%.
`O=C(NC1CC1)c1ccc(-c2csc(NC(=O)[C@@H]3CCCN3C(=O)Cc3cc(F)cc(F)c3)n2)cc1` [Compound 5315, 1-[2-(3,5-Difluoro-phenyl)-acetyl]-pyrrolidine-2-carboxylic acid [4-(4-cyclopropylcarbamoyl-phenyl)-thiazol-2-yl]-amide] showed an inhibition at 10 µM of 99.7%.
`O=C(Nc1ccc(-c2csc(NC(=O)C3CCCN3C(=O)OCc3ccccc3)n2)cc1)C1CC1` (centres unmarked) [Compound 5018, 2-{4-[4-(Cyclopropanecarbonyl-amino)-phenyl]-thiazol-2-ylcarbamoyl}-pyrrolidine-1-carboxylic acid benzyl ester] gave an inhibition at 10 µM of 100%.
Work on `O=C(Nc1ccc(-c2csc(NC(=O)[C@@H]3C[C@@H](O)CN3C(=O)OCc3ccccc3)n2)cc1)C1CC1` [Compound 5310, 2-{4-[4-(Cyclopropanecarbonyl-amino)-phenyl]-thiazol-2-ylcarbamoyl}-4-hydroxy-pyrrolidine-1-carboxylic acid benzyl ester] yielded an inhibition at 10 µM of 99.3%.
For `O=C(NC1CC1)c1ccc(-c2csc(NC(=O)C3CCCN3C(=O)OCc3ccncc3)n2)cc1` (centres unmarked) [Compound 5384, 2-[4-(4-Cyclopropylcarbamoyl-phenyl)-thiazol-2-ylcarbamoyl]-pyrrolidine-1-carboxylic acid pyridin-4-ylmethyl ester], the inhibition at 10 µM was 99.7%.
Work on `COc1ccc(-c2csc(NC(=O)[C@@H]3CCCN3C(=O)OCc3ccccc3)n2)cc1Br` [Compound 5016, 2-[4-(3-Bromo-4-methoxy-phenyl)-thiazol-2-ylcarbamoyl]-pyrrolidine-1-carboxylic acid benzyl ester] yielded an inhibition at 10 µM of 100%.
In the case of `O=C(Nc1ccc(-c2cnc(NC(=O)[C@@H]3CCCN3C(=O)OCc3ccccc3)s2)cc1)C1CCCC1` [Compound 5110, 2-{5-[4-(Cyclopentanecarbonyl-amino)-phenyl]-thiazol-2-ylcarbamoyl}-pyrrolidine-1-carboxylic acid benzyl ester], the inhibition at 10 µM is reported as 89.6%.
`O=C(NC1CC1)c1ccc(-c2csc(NC(=O)[C@@H]3CCCN3C(=O)c3ccccc3)n2)cc1` [Compound 5367, 1-Benzoyl-pyrrolidine-2-carboxylic acid [4-(4-cyclopropylcarbamoyl-phenyl)-thiazol-2-yl]-amide] showed an inhibition at 10 µM of 97.3%.
With `O=C(Nc1nc(-c2ccc(F)cc2F)cs1)[C@@H]1CCCN1C(=O)OCc1ccccc1` [Compound 5023, 2-[4-(2,4-Difluoro-phenyl)-thiazol-2-ylcarbamoyl]-pyrrolidine-1-carboxylic acid benzyl ester] the inhibition at 10 µM was 76.5%.
`O=C(Nc1nc(-c2cccnc2)cs1)[C@@H]1CCCN1C(=O)OCc1ccccc1` [Compound 5338, 2-(4-Pyridin-3-yl-thiazol-2-ylcarbamoyl)-pyrrolidine-1-carboxylic acid benzyl ester] showed an inhibition at 10 µM of 75.2%.
For `O=C(Nc1nc(-c2cccc(N(CC3CC3)CC3CC3)c2)cs1)[C@@H]1CCCN1C(=O)OCc1ccccc1` [Compound 5383, 2-{4-[3-(Bis-cyclopropylmethyl-amino)-phenyl]-thiazol-2-ylcarbamoyl}-pyrrolidine-1-carboxylic acid benzyl ester], the inhibition at 10 µM was 47%.
In the case of `O=C(NC1CC1)c1ccc(-c2csc(NC(=O)[C@@H]3CCN3C(=O)OCc3ccccc3)n2)cc1` [Compound 5301, 2-[4-(4-Cyclopropylcarbamoyl-phenyl)-thiazol-2-ylcarbamoyl]-azetidine-1-carboxylic acid benzyl ester], the inhibition at 10 µM is reported as 100%.
`O=C(NCCN1CCCCC1)c1ccc(-c2csc(NC(=O)[C@@H]3CCCN3C(=O)OCc3ccccc3)n2)cc1` [Compound 5307, 2-{4-[4-(2-Piperidin-1-yl-ethylcarbamoyl)-phenyl]-thiazol-2-ylcarbamoyl}-pyrrolidine-1-carboxylic acid benzyl ester] was tested, and the inhibition at 10 µM was 100%.
`O=C(NC1CC1)c1ccc(-c2csc(NC(=O)[C@@H]3CCCN3C(=O)COc3ccccc3)n2)cc1` (stereo in doubt) [Compound 5331, 1-(2-Phenoxy-acetyl)-pyrrolidine-2-carboxylic acid [4-(4-cyclopropylcarbamoyl-phenyl)-thiazol-2-yl]-amide] gave an inhibition at 10 µM of 43%.
For `O=C(Nc1cccc(-c2cnc(NC(=O)[C@@H]3CCCN3C(=O)OCc3ccccc3)s2)c1)c1ccccc1` [Compound 5113, 2-[5-(3-Benzoylamino-phenyl)-thiazol-2-ylcarbamoyl]-pyrrolidine-1-carboxylic acid benzyl ester], the inhibition at 10 µM was 99.7%.
`O=C(Nc1ncc(Cc2cccc(Cl)c2Cl)s1)[C@@H]1CCCN1C(=O)OCc1ccccc1` [Compound 5012, 2-[5-(2,3-Dichloro-benzyl)-thiazol-2-ylcarbamoyl]-pyrrolidine-1-carboxylic acid benzyl ester] gave an inhibition at 10 µM of 1.01%.
With `O=C(Nc1nc(C2CCOCC2)cs1)[C@@H]1CCCN1C(=O)OCc1ccccc1` [Compound 5051, 2-[4-(Tetrahydro-pyran-4-yl)-thiazol-2-ylcarbamoyl]-pyrrolidine-1-carboxylic acid benzyl ester] the inhibition at 10 µM was 3.42%.
`O=C(Nc1cccc(-c2csc(NC(=O)[C@@H]3CCCN3C(=O)OCc3ccccc3)n2)c1)c1ccc(Cl)cc1` [Compound 5038, 2-{4-[3-(4-Chloro-benzoylamino)-phenyl]-thiazol-2-ylcarbamoyl}-pyrrolidine-1-carboxylic acid benzyl ester] was tested, and the inhibition at 10 µM was 100%.
`Cc1cccc(Cc2cnc(NC(=O)[C@@H]3CCCN3C(=O)OCc3ccccc3)s2)c1` [Compound 5067, 2-[5-(3-Methyl-benzyl)-thiazol-2-ylcarbamoyl]-pyrrolidine-1-carboxylic acid benzyl ester] was tested, and the inhibition at 10 µM was 23.9%.
For `O=C(CCCCC1SC[C@@H]2NC(=O)N[C@H]12)NCCCCCC(=O)Nc1ccc(-c2csc(NC(=O)C3CCCN3C(=O)OCc3ccccc3)n2)cc1` (some centres unmarked) [Compound 5374, 2-[4-(4-{6-[5-(2-Oxo-hexahydro-thieno[3,4-d]imidazol-6-yl)-pentanoylamino]-hexanoylamino}-phenyl)-thiazol-2-ylcarbamoyl]-pyrrolidine-1-carboxylic acid benzyl ester], the inhibition at 10 µM was 99.3%.
For `O=C(Nc1cc(-c2ccccc2)nn1-c1ccccc1)[C@@H]1CCCN1C(=O)OCc1ccccc1` [Compound 5065, 2-(2,5-Diphenyl-2H-pyrazol-3-ylcarbamoyl)-pyrrolidine-1-carboxylic acid benzyl ester], the inhibition at 10 µM was 27.2%.
With `O=C(NC1CC1)c1ccc(-c2csc(NC(=O)[C@@H]3[C@@H](O)CCN3C(=O)OCc3ccccc3)n2)cc1` [Compound 5376, 2-[4-(4-Cyclopropylcarbamoyl-phenyl)-thiazol-2-ylcarbamoyl]-3-hydroxy-pyrrolidine-1-carboxylic acid benzyl ester] the inhibition at 10 µM was 96%.
Work on `O=C(NC1CC1)c1ccc(-c2csc(NC(=O)[C@@H]3CCCN3C(=O)NCc3ccccc3)n2)cc1` [Compound 5342, Pyrrolidine-1,2-dicarboxylic acid 1-benzylamide 2-{[4-(4-cyclopropylcarbamoyl-phenyl)-thiazol-2-yl]-amide}] yielded an inhibition at 10 µM of 95.2%.
